According to patent publication US8198317B2, “Methylenedioxy phenolic compounds and their use to treat disease” (The Ohio State University Research Foundation, priority 2008, dated 2012):

Tested on: thoracic aorta of New Zealand White rabbits
Assay: Myograph experiments on thoracic aortic rings of NZW rabbits
Type: in vivo, rabbit
Method: Animal Model: 15 male New Zealand White rabbits (Charles River, Mass.) were fed with high fat diet (HFD) (Harlan Teklad rabbit diet with 0.5% cholesterol, TD 87251). After 4 weeks of high fat diet, rabbits were randomized into three different treatment groups, normal control (n=5), lipoic acid (100 mg/kg/day) (n=5), INV 70-65 (100 mg/kg/day) (n=5). These drugs were administered to the animals via their chow by mixing the drugs with the high fat diet. A fixed amount of chow and drugs admixed in the chow were fed to all animals every day after carefully calculating food intake in each rabbit. Drugs were dissolved in 100% ethanol and sprayed onto the diet and kept under vacuum to let ethanol evaporate overnight. Two (2) weeks after drug or control admixed HFD, all rabbits underwent aortic balloon denudation surgeries followed by 12 weeks of continued administration of drug or controls admixed with HFD. FIG. 29 provides an outline of the experimental design.
Rabbits were euthanized by injection of lethal doses of pentobarbital. The thoracic aortas were collected for the myograph studies. Two (2) mm thoracic aortic rings were suspended in individual organ chambers filled with physiological salt solution buffer (sodium chloride, 130 mEq/L; potassium chloride, 4.7 mEq/L; calcium dichloride, 1.6 mEq/L; magnesium sulfate, 1.17 mEq/L; potassium diphosphate, 1.18 mEq/L; sodium bicarbonate, 14.9 mEq/L; EDTA, 0.026 mEq/L; and glucose, 99.1 mg/dL [5.5 mmol/L]; pH, 7.4), aerated continuously with 5% carbon dioxide in oxygen at 37° C. Vessels were allowed to equilibrate for at least 1 hour at a resting tension of 30 mN before being subjected to graded doses of agonists. The vasoconstrictor agonist phenylephrine (PE) was used and responses were expressed as a percentage of the peak response to 120 mEq/L of potassium chloride. The vessels subjected to PE were washed thoroughly and allowed to equilibrate for 1 hour before beginning experiments with acetylcholine or sodium nitroprusside (SNP). […] Results for the vasodilators were expressed as a percentage of pre-contraction by PE (0.1 μM).

[1] = NZW thoracic aorta, end of 12 weeks
[2] = NZW thoracic aorta, end of 12 weeks, % of pre-contraction by PE

effect on Insulin EC50 doses (NZW, in words): no effect
SMILES: O=C(CCCCC1CCSS1)Oc1ccc2c(c1)OCO2 (centres unmarked) [INV-7065, 3,4-Methylenedioxy phenyl lipoate]
Ach LogEC50 [1]: −6.67 ± 0.16 M
PE LogEC50 [1]: −6.28 ± 0.08 M
SNP-1 LogEC50 [1]: −7.09 ± 0.16 M
PE Maximum Effect (NZW thoracic aorta, end of 12 weeks, % of peak response to KCl): 109.1 ± 4.78 %
Ach Maximum Effect [2]: −29.84 ± 2.09 %
Insulin Maximum Effect [2]: −132.5 ± 14.59 %
SNP-1 Maximum Effect [2]: −83.06 ± 4.95%
improving response to acetylcholine when compared to control (NZW, in words): no different than lipoic acid
relaxation to peak doses of Insulin compared to lipoic acid (NZW, in words): improved
vascular contractility to alpha receptor agonist (NZW, in words): decreases
